Data as given in ChEMBL document CHEMBL5390317, “Novel Indane-Containing NBTIs with Potent Anti-Gram-Negative Activity and Minimal hERG Inhibition” (ACS Med Chem Lett, 2023).
Converted amounts (≈) assume the structure as drawn.

Experiments:
Escherichia coli [1] = assay: Antibacterial activity against Escherichia coli ATCC BAA-2340 assessed as inhibition in bacterial growth incubated for 20 to 24 hrs by CLSI based broth microdilution method; assay type: functional; details: Escherichia coli, ATCC BAA-2340, time 20-24 hrs; read-out: MIC
Escherichia coli [2] = assay: Antibacterial activity against Escherichia coli K-12 BW25113 assessed as inhibition in bacterial growth incubated for 20 to 24 hrs by CLSI based broth microdilution method; assay type: functional; details: Escherichia coli, K-12 BW25113, time 20-24 hrs; read-out: MIC
Staphylococcus aureus [3] = assay: Antibacterial activity against Staphylococcus aureus ATCC BAA-1556 assessed as inhibition in bacterial growth incubated for 20 to 24 hrs by CLSI based broth microdilution method; assay type: functional; details: Staphylococcus aureus, ATCC BAA-1556, time 20-24 hrs; read-out: MIC
Staphylococcus aureus [4] = assay: Antibacterial activity against Staphylococcus aureus ATCC 29213 assessed as inhibition in bacterial growth incubated for 20 to 24 hrs by CLSI based broth microdilution method; assay type: functional; details: Staphylococcus aureus, ATCC 29213; time 20-24 hrs; read-out: MIC
hERG (KCNH2) [5] = molecular target: T1, hERG (KCNH2) (Homo sapiens, UniProt Q12809); assay: Inhibition of hERG potassium channel expressed in CHO cells at 1 uM by electrophysiological patch clamp assay relative to control; assay type: toxicity, cell-based; details: CHO cells expressing hERG
Acinetobacter baumannii [6] = assay: Antibacterial activity against Acinetobacter baumannii ATCC 51432 assessed as inhibition in bacterial growth incubated for 20 to 24 hrs by CLSI based broth microdilution method; assay type: functional; details: Acinetobacter baumannii, ATCC 51432, time 20-24 hrs; read-out: MIC
[7] = Inhibition of Escherichia coli topoisomerase 4 incubated for 120 mins by Transcreener ADP2 FI assay
hERG (KCNH2) [8] = molecular target: T1, hERG (KCNH2); assay: Inhibition of hERG potassium channel expressed in CHO cells at 10 uM by electrophysiological patch clamp assay relative to control; assay type: toxicity, cell-based; details: CHO cells expressing hERG
Klebsiella pneumoniae [9] = assay: Antibacterial activity against Klebsiella pneumoniae ATCC BAA-2146 assessed as inhibition in bacterial growth incubated for 20 to 24 hrs by CLSI based broth microdilution method; assay type: functional; details: Klebsiella pneumoniae, ATCC BAA-2146, time 20-24 hrs; read-out: MIC
Escherichia coli [10] = assay: Antibacterial activity against Escherichia coli K-12 BW25113 deltaTolC assessed as inhibition in bacterial growth incubated for 20 to 24 hrs by CLSI based broth microdilution method; assay type: functional; details: time 20-24 hrs
[11] = molecular target: Voltage-gated inwardly rectifying potassium channel KCNH2 (Homo sapiens, UniProt Q12809); assay: (§1) Inhibition of hERG potassium channel expressed in CHO cells by electrophysiological patch clamp assay; assay type: toxicity, cell-based
hERG (KCNH2) [12] = molecular target: T1, hERG (KCNH2); assay: as §1; assay type: toxicity, cell-based; details: human, CHO cells expressing hERG
Acinetobacter baumannii [13] = assay: Antibacterial activity against Acinetobacter baumannii ATCC BAA-747 assessed as inhibition in bacterial growth incubated for 20 to 24 hrs by CLSI based broth microdilution method; assay type: functional; details: Acinetobacter baumannii, ATCC BAA-747, time 20-24 hrs; read-out: MIC
Escherichia coli [14] = assay: Antibacterial activity against Escherichia coli ATCC 35218 assessed as inhibition in bacterial growth incubated for 20 to 24 hrs by CLSI based broth microdilution method; assay type: functional; details: Escherichia coli, ATCC 35218, time 20-24 hrs; read-out: MIC
Pseudomonas aeruginosa [15] = assay: Antibacterial activity against Pseudomonas aeruginosa ATCC 27853 assessed as inhibition in bacterial growth incubated for 20 to 24 hrs by CLSI based broth microdilution method; assay type: functional; details: time 20-24 hrs
DNA gyrase = DNA gyrase (Escherichia coli, UniProt P0AES4+P0AES6); assay: Inhibition of Escherichia coli DNA gyrase incubated for 80 mins by Transcreener ADP2 FI assay; assay type: protein-complex assay
Pseudomonas aeruginosa [16] = assay: Antibacterial activity against Pseudomonas aeruginosa NCTC 13437 assessed as inhibition in bacterial growth incubated for 20 to 24 hrs by CLSI based broth microdilution method; assay type: functional; details: Pseudomonas aeruginosa, NCTC 13437, time 20-24 hrs; read-out: MIC
Klebsiella pneumoniae [17] = assay: Antibacterial activity against Klebsiella pneumoniae ATCC BAA-1705 assessed as inhibition in bacterial growth incubated for 20 to 24 hrs by CLSI based broth microdilution method; assay type: functional; details: time 20-24 hrs
Pseudomonas aeruginosa [18] = assay: Antibacterial activity against Pseudomonas aeruginosa NCTC 11451 assessed as inhibition in bacterial growth incubated for 20 to 24 hrs by CLSI based broth microdilution method; assay type: functional; details: Pseudomonas aeruginosa, NCTC 11451, time 20-24 hrs; read-out: MIC
Escherichia coli [19] = assay: Antibacterial activity against Escherichia coli ATCC 25922 assessed as inhibition in bacterial growth incubated for 20 to 24 hrs by CLSI based broth microdilution method; assay type: functional; details: time 20-24 hrs
Acinetobacter baumannii [20] = assay: Antibacterial activity against Acinetobacter baumannii ATCC 19606 assessed as inhibition in bacterial growth incubated for 20 to 24 hrs by CLSI based broth microdilution method; assay type: functional; details: time 20-24 hrs
Klebsiella pneumoniae [21] = assay: Antibacterial activity against Klebsiella pneumoniae ATCC 10031 assessed as inhibition in bacterial growth incubated for 20 to 24 hrs by CLSI based broth microdilution method; assay type: functional; details: time 20-24 hrs
Klebsiella pneumoniae [22] = assay: Antibacterial activity against Klebsiella pneumoniae ATCC 700603 assessed as inhibition in bacterial growth incubated for 20 to 24 hrs by CLSI based broth microdilution method; assay type: functional; details: Klebsiella pneumoniae, ATCC 700603, time 20-24 hrs; read-out: MIC

T1 sequence (Q12809 whole entry): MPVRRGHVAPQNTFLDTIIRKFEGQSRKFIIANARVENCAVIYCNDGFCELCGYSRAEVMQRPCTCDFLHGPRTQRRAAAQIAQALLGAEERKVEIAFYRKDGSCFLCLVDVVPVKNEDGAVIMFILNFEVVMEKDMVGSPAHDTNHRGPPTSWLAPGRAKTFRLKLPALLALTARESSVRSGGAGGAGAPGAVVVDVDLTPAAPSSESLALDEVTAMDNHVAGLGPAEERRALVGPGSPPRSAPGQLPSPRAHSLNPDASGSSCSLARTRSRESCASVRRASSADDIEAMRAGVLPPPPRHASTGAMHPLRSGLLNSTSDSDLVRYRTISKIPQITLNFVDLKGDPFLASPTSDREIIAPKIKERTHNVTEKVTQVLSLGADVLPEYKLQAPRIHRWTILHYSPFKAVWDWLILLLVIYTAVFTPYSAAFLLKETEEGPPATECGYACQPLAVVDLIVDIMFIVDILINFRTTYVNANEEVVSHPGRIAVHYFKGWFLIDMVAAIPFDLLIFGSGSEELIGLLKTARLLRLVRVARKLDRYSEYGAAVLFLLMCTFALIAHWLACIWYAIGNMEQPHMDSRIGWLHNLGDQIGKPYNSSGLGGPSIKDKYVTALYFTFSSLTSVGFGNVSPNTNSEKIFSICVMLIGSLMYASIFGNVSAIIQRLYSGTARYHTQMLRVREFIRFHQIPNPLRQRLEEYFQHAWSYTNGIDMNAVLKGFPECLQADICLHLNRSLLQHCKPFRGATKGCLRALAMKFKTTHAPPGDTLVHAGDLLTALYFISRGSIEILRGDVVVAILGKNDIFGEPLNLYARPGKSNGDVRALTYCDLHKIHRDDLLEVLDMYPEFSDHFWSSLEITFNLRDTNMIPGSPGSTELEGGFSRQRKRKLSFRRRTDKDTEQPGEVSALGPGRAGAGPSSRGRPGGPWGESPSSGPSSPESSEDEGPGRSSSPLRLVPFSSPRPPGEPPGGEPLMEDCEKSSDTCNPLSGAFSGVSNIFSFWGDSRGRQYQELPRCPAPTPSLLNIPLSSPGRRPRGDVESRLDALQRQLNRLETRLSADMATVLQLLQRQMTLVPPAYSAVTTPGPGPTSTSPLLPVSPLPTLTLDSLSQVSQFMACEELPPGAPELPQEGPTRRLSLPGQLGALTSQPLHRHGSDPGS
Voltage-gated inwardly rectifying potassium channel KCNH2, sequence (Q12809 whole entry): as above

Structure (SMILES) | MIC (Escherichia coli [1]) [µg/mL] | MIC (Escherichia coli [2]) [µg/mL] | MIC (Staphylococcus aureus [3]) [µg/mL] | MIC (Staphylococcus aureus [4]) [µg/mL] | inhibition at 1 µM (hERG (KCNH2) [5]) [%] | MIC (Acinetobacter baumannii [6]) [µg/mL] | IC50 [7] [nM] | inhibition at 10 µM (hERG (KCNH2) [8]) [%] | MIC (Klebsiella pneumoniae [9]) [µg/mL] | MIC (Escherichia coli [10]) [µg/mL] | IC50 [11] [nM] | IC20 (hERG (KCNH2) [12]) [nM] | MIC (Acinetobacter baumannii [13]) [µg/mL] | MIC (Escherichia coli [14]) [µg/mL] | MIC (Pseudomonas aeruginosa [15]) [µg/mL] | IC50 (DNA gyrase) [nM] | MIC (Pseudomonas aeruginosa [16]) [µg/mL] | MIC (Klebsiella pneumoniae [17]) [µg/mL] | MIC (Pseudomonas aeruginosa [18]) [µg/mL] | MIC (Escherichia coli [19]) [µg/mL] | other results
N#Cc1cc(OCC2(N)CC2)cc2c1CC(CNCCC1CN(c3ccc4c(n3)NC(=O)CO4)C(=O)O1)C2 (stereo not given) | ≤ 0.06 | ≤ 0.06 | ≤ 0.06 | ≤ 0.06 | < 1 | 2 (≈ 3.86 µM) | 19 | 28 | 4 (≈ 7.71 µM) | ≤ 0.06 | > 20000 | 6400 | ≤ 0.06 | 0.125 (≈ 0.241 µM) | 0.25 (≈ 0.482 µM) | 35 | 0.5 (≈ 0.964 µM) | 1 (≈ 1.93 µM) | 1 (≈ 1.93 µM) | ≤ 0.06 | MIC (Acinetobacter baumannii [20]): 1 µg/mL (≈ 1.93 µM); MIC (Klebsiella pneumoniae [21]): ≤ 0.06 µg/mL; MIC (Klebsiella pneumoniae [22]): 1 µg/mL (≈ 1.93 µM)
N#Cc1cc(OCCN)cc2c1CC(CNCCC1CN(c3ccc4c(n3)NC(=O)CO4)C(=O)O1)C2 (stereo not given) | 0.25 (≈ 0.508 µM) | 0.125 (≈ 0.254 µM) | 1 (≈ 2.03 µM) | 0.5 (≈ 1.02 µM) | < 1 | 16 (≈ 32.5 µM) | 6 | < 1 | 4 (≈ 8.12 µM) | ≤ 0.06 | > 20000 | > 10000 | 1 (≈ 2.03 µM) | 0.25 (≈ 0.508 µM) | 0.125 (≈ 0.254 µM) | 17 | 0.5 (≈ 1.02 µM) | 2 (≈ 4.06 µM) | 1 (≈ 2.03 µM) | 0.25 (≈ 0.508 µM) | MIC (Acinetobacter baumannii [20]): 16 µg/mL (≈ 32.5 µM); MIC (Klebsiella pneumoniae [21]): ≤ 0.06 µg/mL; MIC (Klebsiella pneumoniae [22]): 2 µg/mL (≈ 4.06 µM)
CC(C)(N)COc1cc(C#N)c2c(c1)CC(CNCCC1CN(c3ccc4c(n3)NC(=O)CO4)C(=O)O1)C2 (stereo not given) | 0.125 (≈ 0.24 µM) | ≤ 0.06 | 0.25 (≈ 0.48 µM) | 0.125 (≈ 0.24 µM) | 3.5 | 8 (≈ 15.4 µM) | 23 | 11 | 4 (≈ 7.68 µM) | ≤ 0.06 | > 20000 | > 10000 | 0.25 (≈ 0.48 µM) | 0.25 (≈ 0.48 µM) | ≤ 0.06 | 16 | 0.5 (≈ 0.96 µM) | 2 (≈ 3.84 µM) | 1 (≈ 1.92 µM) | 0.25 (≈ 0.48 µM) | MIC (Acinetobacter baumannii [20]): 8 µg/mL (≈ 15.4 µM); MIC (Klebsiella pneumoniae [21]): ≤ 0.06 µg/mL; MIC (Klebsiella pneumoniae [22]): 4 µg/mL (≈ 7.68 µM)
CC(N)COc1cc(F)c2c(c1)CC(CNCCC1CN(c3ccc4c(n3)NC(=O)CO4)C(=O)O1)C2 (stereo not given) | 0.25 (≈ 0.5 µM) | ≤ 0.06 | 0.125 (≈ 0.25 µM) | ≤ 0.06 | < 1 | 2 (≈ 4 µM) | 39 | 3.9 | 2 (≈ 4 µM) | ≤ 0.06 | > 20000 | > 10000 | 0.125 (≈ 0.25 µM) | 0.25 (≈ 0.5 µM) | 0.25 (≈ 0.5 µM) | 47 | 1 (≈ 2 µM) | 1 (≈ 2 µM) | 2 (≈ 4 µM) | 0.25 (≈ 0.5 µM) | MIC (Acinetobacter baumannii [20]): 2 µg/mL (≈ 4 µM); MIC (Klebsiella pneumoniae [21]): ≤ 0.06 µg/mL; MIC (Klebsiella pneumoniae [22]): 2 µg/mL (≈ 4 µM)
NC1(COc2cc(F)c3c(c2)CC(CNCCC2CN(c4ccc5c(n4)NC(=O)CO5)C(=O)O2)C3)CC1 (stereo not given) | 0.25 (≈ 0.489 µM) | ≤ 0.06 | 0.125 (≈ 0.244 µM) | ≤ 0.06 | < 1 | 1 (≈ 1.95 µM) | 39 | 45 | 1 (≈ 1.95 µM) | ≤ 0.06 | > 10000 | 3100 | ≤ 0.06 | 0.125 (≈ 0.244 µM) | 0.5 (≈ 0.977 µM) | 100 | 1 (≈ 1.95 µM) | 1 (≈ 1.95 µM) | 2 (≈ 3.91 µM) | 0.125 (≈ 0.244 µM) | MIC (Acinetobacter baumannii [20]): 0.5 µg/mL (≈ 0.977 µM); MIC (Klebsiella pneumoniae [21]): ≤ 0.06 µg/mL; MIC (Klebsiella pneumoniae [22]): 2 µg/mL (≈ 3.91 µM)
